What was measured:
NPR-B receptor = biological target: T1, NPR-B receptor (Mus musculus, UniProt Q6VVW5); assay: Functional cGMP stimulation in NIH-3T3 cells with CNP variants; type: cell-based, murine; conditions: residual NPR-B activity vs non-PEGylated CNP-38, cGMP
T1 construct: These cells express endogenously the NPR-B receptor on the cell surface; endogenous in cells; host or cells: NIH-3T3 (murine embryo fibroblast)
T1 sequence (Q6VVW5 23-1047 limits assumed): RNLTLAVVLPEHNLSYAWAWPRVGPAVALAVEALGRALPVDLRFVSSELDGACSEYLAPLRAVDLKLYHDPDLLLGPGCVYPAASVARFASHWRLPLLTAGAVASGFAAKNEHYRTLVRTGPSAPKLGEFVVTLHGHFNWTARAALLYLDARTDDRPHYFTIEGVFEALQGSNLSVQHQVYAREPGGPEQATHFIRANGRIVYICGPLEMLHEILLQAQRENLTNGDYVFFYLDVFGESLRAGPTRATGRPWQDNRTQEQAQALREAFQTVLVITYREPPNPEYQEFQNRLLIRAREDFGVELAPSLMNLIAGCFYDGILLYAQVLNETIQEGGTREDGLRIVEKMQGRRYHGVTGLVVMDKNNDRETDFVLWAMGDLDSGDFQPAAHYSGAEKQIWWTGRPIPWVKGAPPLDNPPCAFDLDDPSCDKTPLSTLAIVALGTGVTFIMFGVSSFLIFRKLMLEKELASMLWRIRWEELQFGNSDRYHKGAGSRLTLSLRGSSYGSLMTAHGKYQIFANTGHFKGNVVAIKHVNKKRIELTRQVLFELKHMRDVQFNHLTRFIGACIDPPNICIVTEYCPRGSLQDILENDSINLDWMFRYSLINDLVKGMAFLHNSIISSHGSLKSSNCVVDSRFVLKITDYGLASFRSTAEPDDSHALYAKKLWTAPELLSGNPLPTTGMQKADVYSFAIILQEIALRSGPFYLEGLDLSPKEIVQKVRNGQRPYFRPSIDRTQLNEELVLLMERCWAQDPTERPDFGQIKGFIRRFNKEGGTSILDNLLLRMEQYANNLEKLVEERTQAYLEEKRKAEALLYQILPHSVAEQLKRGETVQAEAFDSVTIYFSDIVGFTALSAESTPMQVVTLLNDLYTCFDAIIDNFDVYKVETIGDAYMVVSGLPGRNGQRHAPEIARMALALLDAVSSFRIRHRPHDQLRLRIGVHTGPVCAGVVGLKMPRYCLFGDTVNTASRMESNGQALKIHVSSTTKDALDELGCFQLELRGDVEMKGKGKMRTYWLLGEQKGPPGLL
Protocol: As used herein “EC50” with regard to controlled-release CNP agonist and CNP agonist refers to the concentration of controlled-release CNP agonist and CNP agonist with which a half-maximum cGMP production of NPR-B is elicited. NPR-B activity in the form of its EC50 of the controlled-release CNP agonist, of the released CNP agonist and of CNP-22 is measured by cultivating NIH-3T3 (Murine Embryo Fibroblast cell line) cells which express NPR-B on their cell surface, incubating the cells with the controlled-release CNP agonist, the corresponding released CNP agonist or CNP-22, respectively, and determining the intracellular production of the second messenger cGMP with a standard cGMP assay. In particular the assay is performed as follows: • (1) murine NIH-3T3 cells expressing endogenous NPR-B are cultivated in DMEM F-12 medium with 5% FBS and 5 mM glutamine at 37° C. and 5% CO2; • (2) for each assay 50,000 cells are resuspended in Dulbecco's PBS with IBMX and incubated with either the controlled-release CNP agonist, the corresponding released CNP agonist or CNP-22; each in different concentrations; • (3) after incubating for 30 min at 37° C. and 5% CO2, the cells are lysed and cGMP levels are determined; and • (4) generating an EC50 value from the determined cGMP levels.
Functional activity of CNP variants were determined in a cell-based assay with NIH-3T3 cells (Murine Embryo Fibroblast cell line). These cells express endogenously the NPR-B receptor on the cell surface. Stimulation of the NPR-B receptor with CNP leads to intracellular production of the second messenger cGMP which is detected with a commercially available cGMP assay. NIH-3T3 cells were routinely cultured in DMEM F-12 medium with 5% FBS and 5 mM glutamine at 37° C. and 5% CO2. For each assay, 50,000 cells were resuspended in stimulation buffer (Dulbecco's PBS with IBMX) and incubated with the CNP variants in different concentrations. CNP (dilutions were made in PBS with 0.2% BSA). After incubation of 30 min at 37° C. and 5% CO2, the cells were lyzed and cGMP levels were determined with a commercially available cGMP TR-FRET assay (Cisbio, cGMP kit, Cat. No. 62GM2PEB). PEGylated CNP variants were always characterized in comparison with the non-PEGylated version in the same experiment batch. If possible, evaluation of the residual activity was done via the relative EC50-parameter of the resulting dose-response curve (restricted model with common slope).
11i was incubated under physiological conditions (1 mg CNP-38 eq/mL), as described in Example 20. After 7 d, released CNP-38 was isolated by RP-HPLC and analyzed for bioactivity as described in Example 21.

NPR-C = biological target: T2, NPR-C (Homo sapiens, UniProt P17342); assay: NPR-C affinity assay; type: binding; conditions: residual NPR-C affinity, NPR-C expressing Hek293 cells, competition with fluorescein-labelled CNP 27d
T2 construct: expressed in transfected cells; host or cells: Hek293, lentiviral transduction, CMV promoter, puromycin selection
T2 sequence (P17342 27-541): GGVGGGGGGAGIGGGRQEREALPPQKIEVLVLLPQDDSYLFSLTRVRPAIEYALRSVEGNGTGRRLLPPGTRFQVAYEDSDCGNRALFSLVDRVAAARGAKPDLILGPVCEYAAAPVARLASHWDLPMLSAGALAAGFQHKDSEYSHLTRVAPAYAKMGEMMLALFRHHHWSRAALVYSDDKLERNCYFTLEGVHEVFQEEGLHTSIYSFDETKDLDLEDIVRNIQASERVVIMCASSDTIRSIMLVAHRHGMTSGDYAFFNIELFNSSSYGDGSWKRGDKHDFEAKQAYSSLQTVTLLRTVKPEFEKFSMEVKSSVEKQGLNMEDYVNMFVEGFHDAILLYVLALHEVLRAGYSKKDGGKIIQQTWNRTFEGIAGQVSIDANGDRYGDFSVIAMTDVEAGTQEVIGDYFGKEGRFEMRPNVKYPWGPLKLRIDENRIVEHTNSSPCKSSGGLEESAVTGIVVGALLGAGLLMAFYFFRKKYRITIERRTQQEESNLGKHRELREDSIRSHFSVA

| Substance | EC50 compound/EC50 CNP-38 (NPR-B receptor) | IC50 of PEGylated CNP-38/IC50 CNP-38 (NPR-C) |
| --- | --- | --- |
| Reversible Lys26 CNP-38 PEG2×20 kDa Conjugate [Compound 10f] | >>100 | 12 |
| Permanent Lys26 CNP-38 PEG4×10 kDa Conjugate [Compound 12g] | >>100 | 143 |

From patent US12544428B2, “Controlled-release CNP agonists with reduced side-effects” (ASCENDIS PHARMA GROWTH DISORDERS A/S, priority 2016, dated 2026)
